Reference: patent publication US20210008142A1, “PREPARATION AND USES OF SPINOSIN-Na FROM ZIZIPHI SPINOSAE SEMEN” (Shanxi University, priority 2019, published 2021)
≈ marks a conversion by molar mass, not a printed value. Like-named read-outs stand apart in the source and are kept apart here.

Legend:
[1] = spinosin prepared by the existing methods; cited from earlier work
[2] = test system: cervical cancer cell line Hela; experiment: MTT assay, tumor cell proliferation; format: cell-based; settings: 48 h; for IC50: MTT
Experimental: (§1) Colon cancer cell line HCT116, cervical cancer cell line Hela, breast cancer cell MCF-7, liver cancer cell HepG2 and normal colonic epithelial cell line FHC in the logarithmic phase were harvested and respectively made into a suspension. After counted, the suspensions were adjusted to 6000 cells/100 μL, and then 100 μL, of respective suspensions were seeded into a 96-well plate, and cultured at 37° C. and 5% CO2 overnight. After that, the culture medium was discarded, and the wells were respectively added with culture mediums containing different concentrations of spinosin-Na, such that final concentrations of the spinosin-Na were respectively 50, 100, 150, 200 and 250 μg/mL. 5 parallel wells were set for each concentration treatment. The cells were continuously cultured in the incubator for 48 h. After that, the culture medium was discarded, and the cells were washed twice with PBS, added with 20 μL of 5.0 mg/mL MTT and continuously cultured for 4 h. The culture medium was discarded, and respective wells were added with 150 μL of DMSO to dissolve formazan crystals produced by living cells. The plate was shaken on a shaker for 10 min, and then transferred to a microplate reader for the measurement of absorbance at 570 nm.
(§2) The antitumor activity of different concentrations of spinosin (100, 200, 300, 400, 500 μg/mL) was measured by the same method described above.

[3] = test system: Colon cancer cell line HCT116; experiment: MTT assay, tumor cell proliferation; format: cell-based; settings: 48 h; for IC50: HCT-116, MTT
Experimental: as §1, §2

[4] = test system: cervical cancer cells Hela; experiment: Annexin V/PI flow cytometry apoptosis; format: cell-based; settings: 48 h
Experimental: (§3) HCT116 and Hela cells in the logarithmic phase were harvested, digested with 0.25% trypsin, and seeded into a 6-well cell culture plate at a density of 1×10^5 cells per petri dish. The cells were cultured at 37° C. and 5% CO2 in an incubator overnight. After the cell adhesion was observed, the culture medium was replaced, and the dishes were respectively added with different concentrations of spinosin-Na. At the same time, a blank control was set, and each concentration treatment was performed in triplicate. The cells were continuously cultured in the incubator under the same conditions for 48 h. After that, the adherent cells were digested with 0.25% trypsin followed by centrifugation at 1,000 rpm for 5 min. The supernatant was discarded, and the cells were washed twice with PBS. The cells were suspended with 200 μL of a mixture of Annexin V and Binding buffer and reacted at 4° C. in the dark for 30 min. 300 μL of a mixed solution of PI and Binding buffer was added to each sample 5 min before the test. The double-stained cells were detected by flow cytometry to identify normal cells, early apoptotic cells, late apoptotic cells and necrotic cells, determining the apoptosis rate. […]

[5] = test system: colon cancer cells HCT116; experiment: Annexin V/PI flow cytometry apoptosis; format: cell-based; settings: HCT116, 48 h
Experimental: as §3

Water solubility = format: physicochemical
[6] = test system: normal colonic epithelial cell line FHC; experiment: MTT assay, normal cell proliferation; format: cell-based; settings: 50-250 μg/mL, 48 h
Experimental: as §1, §2

breast cancer cell MCF-7 = experiment: MTT assay, tumor cell proliferation; format: cell-based; settings: 48 h
Experimental: as §1, §2

liver cancer cell HepG2 = experiment: MTT assay, tumor cell proliferation; format: cell-based; settings: 48 h
Experimental: as §1, §2

COc1cc2oc(-c3ccc(O)cc3)cc(=O)c2c(O)c1[C@@H]1O[C@H](CO)[C@@H](O)[C@H](O)[C@H]1O[C@@H]1O[C@H](CO)[C@@H](O)[C@H](O)[C@H]1O [Spinosin, spinosin]
water solubility [1]: poor water-solubility | IC50 [2]: 687.60 ± 2132 µg/mL (≈ 1130 µM) | IC50 [3]: 732.71 ± 18.97 µg/mL (≈ 1200 µM)

spinosin-Na
apoptosis of tumor cells [4]: significantly induce the apoptosis | apoptosis of tumor cells [5]: significantly induce the apoptosis | water solubility (Water solubility): good water solubility | effect on proliferation of normal cells [6]: no significant effect | proliferation of tumor cells ([2]; 50-250 μg/mL): significantly inhibit the proliferation | IC50 [2]: 178.41 ± 6.83 µg/mL | proliferation of tumor cells ([3]; HCT116, 50-250 μg/mL): significantly inhibit the proliferation | IC50 [3]: 147.20 ± 4.65 µg/mL | IC50 (breast cancer cell MCF-7; MCF7, MTT): 291.79 ± 10.49 µg/mL | proliferation of tumor cells (breast cancer cell MCF-7; MCF-7, 50-250 μg/mL): significantly inhibit the proliferation | proliferation of tumor cells (liver cancer cell HepG2; HepG2, 50-250 μg/mL): significantly inhibit the proliferation | IC50 (liver cancer cell HepG2; HepG2, MTT): 444.08 ± 15.21 µg/mL
